# Assay results published in paper PMC3989197, “A Novel Carbonyl Reductase with Anti-Prelog Stereospecificity from Acetobacter sp. CCTCC M209061: Purification and Characterization” (PLoS ONE, 2014).
# Experiments:
# [1] = system: T1, AcCR (carbonyl reductase); assay: spectrophotometric initial rate at […] nm; type: biochemical, Acetobacter sp. CCTCC M209061
# T1 construct: native purification from Acetobacter cells (ammonium sulfate, DEAE-Sepharose, Native-PAGE); homotetramer 104 kDa, subunit 27 kDa
# [2] = system: T1, AcCR (carbonyl reductase); assay: spectrophotometric initial rate at […] nm; Hill fit; type: biochemical, Acetobacter sp. CCTCC M209061; settings: NADH-linked reduction (NADH fixed 1 mM), pH 5.0, 25°C; sigmoidal, cooperative
# [3] = target: carbonyl reductase from Acetobacter sp. CCTCC M209061 (AcCR) (Acetobacter sp. CCTCC M209061); assay: SEC; gel permeation on Superdex G-200, 50 mM phosphate buffer pH 7.0 with 0.15 M NaCl, 0.2 ml/min, calibrated with mass markers; apparent native mass (104 kDa) compared with the subunit mass by SDS-PAGE (27 kDa)
# [4] = oxidation of isopropanol (fixed 110 mM), pH 8.0, 35°C
compound,measurement,setting,value
NC(=O)c1ccc[n+]([C@@H]2O[C@H](COP(=O)(O)OP(=O)(O)OC[C@H]3O[C@@H](n4cnc5c(N)ncnc54)[C@H](OP(=O)(O)O)[C@@H]3O)[C@@H](O)[C@H]2O)c1 [NADP^+],Km,[1]; [4],1120 ± 35 µM
CC(C)O [isopropanol],Km,"[1]; NAD+-linked oxidation (NAD+ fixed 5 mM), pH 8.0, 35°C",48300 ± 986 µM
NC(=O)c1ccc[n+]([C@@H]2O[C@H](COP(=O)(O)OP(=O)(O)OC[C@H]3O[C@@H](n4cnc5c(N)ncnc54)[C@H](O)[C@@H]3O)[C@@H](O)[C@H]2O)c1 [NAD^+],Km,[1]; [4],1330 ± 45 µM
CC(=O)c1ccc(Cl)cc1 [4′-chloroacetophenone],Km,"[1]; NADPH-linked reduction (NADPH fixed 0.1 mM), pH 7.5, 25°C",2960 ± 87 µM
same,Km,[2],4130 ± 157 µM
NC(=O)C1=CN([C@@H]2O[C@H](COP(=O)(O)OP(=O)(O)OC[C@H]3O[C@@H](n4cnc5c(N)ncnc54)[C@H](OP(=O)(O)O)[C@@H]3O)[C@@H](O)[C@H]2O)C=CC1 [NADPH],Km,"[1]; reduction of 4′-chloroacetophenone (fixed 5 mM), pH 7.5, 25°C",26 ± 1 µM
carbonyl reductase from Acetobacter sp. CCTCC M209061 (AcCR) (enzyme),stoichiometry N,[3],4
NC(=O)C1=CN([C@@H]2O[C@H](COP(=O)(O)OP(=O)(O)OC[C@H]3O[C@@H](n4cnc5c(N)ncnc54)[C@H](O)[C@@H]3O)[C@@H](O)[C@H]2O)C=CC1 [NADH],Km,"[1]; reduction of 4′-chloroacetophenone (fixed 5 mM), pH 5.0, 25°C",660 ± 21 µM
